Positions of bridges follow the written chain, without caps; N, C: chain ends. Non-standard residues stand in square brackets, D forms with d. Residues, ends and D or L forms follow the SMILES beside them. *: point of attachment. Phe(3,4,5-F3) = N[C@@H](Cc1cc(F)c(F)c(F)c1)C(=O)O; dPhe(3,4,5-F3) = N[C@H](Cc1cc(F)c(F)c(F)c1)C(=O)O; Phe(4-CF3) = N[C@@H](Cc1ccc(C(F)(F)F)cc1)C(=O)O; dPhe(4-CF3) = N[C@H](Cc1ccc(C(F)(F)F)cc1)C(=O)O; Phe(4-Br) = N[C@@H](Cc1ccc(Br)cc1)C(=O)O; Phe(4-F) = N[C@@H](Cc1ccc(F)cc1)C(=O)O; dPhe(3-F) = N[C@H](Cc1cccc(F)c1)C(=O)O; d(hhPhe) = N[C@H](CCCc1ccccc1)C(=O)O; dPhe(2-F) = N[C@H](Cc1ccccc1F)C(=O)O; Gly(octyl) = CCCCCCCC[C@H](N)C(=O)O; d(hPhe) = N[C@H](CCc1ccccc1)C(=O)O; hPhe = N[C@@H](CCc1ccccc1)C(=O)O; dAoc(2) = CCCCCC[C@@H](N)C(=O)O; Octanoyl = CCCCCCCC(=O)*; Dab = NCC[C@H](N)C(=O)O A value given as a limit tells only on which side of the number the result lay.

This data set can be described thus: Hemolytic activity in human RBC at 400 ug/ml after 1 hr. Type of data set: toxicity, cell-based, Erythrocyte. Conditions: red blood cells (erythrocytes), at 400 µg/mL, read-out: Activity.
Regarding `CCCCCCCC(=O)N[C@@H](CCN)C(=O)N[C@H](C(=O)N[C@@H](CCN)C(=O)N[C@H]1CCNC(=O)[C@H]([C@@H](C)O)NC(=O)[C@H](CCN)NC(=O)[C@H](CCN)NC(=O)[C@H](Cc2ccc(F)cc2)NC(=O)[C@@H](CC(C)C)NC(=O)[C@H](CCN)NC1=O)[C@@H](C)O` (Octanoyl-[Dab]T[Dab][Dab][Dab][dL][Phe(4-F)][Dab][Dab]T; lactam 4-C), the hemolysis at 1 h, 400 ug/ml is under 10%.

With `CCCCCCCC(=O)N[C@@H](CCN)C(=O)N[C@H](C(=O)N[C@@H](CCN)C(=O)N[C@H]1CCNC(=O)[C@H]([C@@H](C)O)NC(=O)[C@H](CCN)NC(=O)[C@H](CCN)NC(=O)[C@H](CC(C)C)NC(=O)[C@@H](Cc2cccc(F)c2)NC(=O)[C@H](CCN)NC1=O)[C@@H](C)O` (Octanoyl-[Dab]T[Dab][Dab][Dab][dPhe(3-F)]L[Dab][Dab]T; lactam 4-C), the hemolysis at 1 h, 400 ug/ml is under 10%.

`CC(=O)N[C@H](Cc1ccccc1F)C(=O)N[C@@H](CCN)C(=O)N[C@H](C(=O)N[C@@H](CCN)C(=O)N[C@H]1CCNC(=O)[C@H]([C@@H](C)O)NC(=O)[C@H](CCN)NC(=O)[C@H](CCN)NC(=O)[C@H](CC(C)C)NC(=O)[C@@H](Cc2ccccc2)NC(=O)[C@@H](CCN)NC1=O)[C@H](C)O`: the hemolysis at 1 h, 400 ug/ml was under 10%.

With `CCCCCCCC(=O)N[C@@H](CCN)C(=O)N[C@H](C(=O)N[C@@H](CCN)C(=O)N[C@H]1CCNC(=O)[C@H]([C@@H](C)O)NC(=O)[C@H](CCN)NC(=O)[C@H](CCN)NC(=O)[C@H](Cc2ccc(C(F)(F)F)cc2)NC(=O)[C@@H](CC(C)C)NC(=O)[C@H](CCN)NC1=O)[C@@H](C)O` (Octanoyl-[Dab]T[Dab][Dab][Dab][dL][Phe(4-CF3)][Dab][Dab]T; lactam 4-C), the hemolysis at 1 h, 400 ug/ml is under 10%.

`CCCCCCCC(=O)N[C@@H](CCN)C(=O)N[C@H](C(=O)N[C@@H](CCN)C(=O)N[C@H]1CCNC(=O)[C@H]([C@@H](C)O)NC(=O)[C@H](CCN)NC(=O)[C@H](CCN)NC(=O)[C@H](CC(C)C)NC(=O)[C@@H](Cc2ccc(Br)cc2)NC(=O)[C@H](CCN)NC1=O)[C@@H](C)O`: the hemolysis at 1 h, 400 ug/ml was under 10%.

As to `CCCCCCCC(=O)N[C@@H](CCN)C(=O)N[C@H](C(=O)N[C@@H](CCN)C(=O)N[C@H]1CCNC(=O)[C@H]([C@@H](C)O)NC(=O)[C@H](CCN)NC(=O)[C@H](CCN)NC(=O)[C@H](CC(C)C)NC(=O)[C@@H](CCCc2ccccc2)NC(=O)[C@H](CCN)NC1=O)[C@@H](C)O` (Octanoyl-[Dab]T[Dab][Dab][Dab][d(hhPhe)]L[Dab][Dab]T; lactam 4-C), the hemolysis at 1 h, 400 ug/ml was under 10%.

Regarding `CCCCCCCC(=O)N[C@@H](CCN)C(=O)N[C@H](C(=O)N[C@@H](CCN)C(=O)N[C@H]1CCNC(=O)[C@H]([C@@H](C)O)NC(=O)[C@H](CCN)NC(=O)[C@H](CCN)NC(=O)[C@H](CC(C)C)NC(=O)[C@@H](Cc2ccc(C(F)(F)F)cc2)NC(=O)[C@H](CCN)NC1=O)[C@@H](C)O` (Octanoyl-[Dab]T[Dab][Dab][Dab][dPhe(4-CF3)]L[Dab][Dab]T; lactam 4-C), the hemolysis at 1 h, 400 ug/ml is under 10%.

For `CCCCCCCC(=O)N[C@@H](CCN)C(=O)N[C@H](C(=O)N[C@@H](CCN)C(=O)N[C@H]1CCNC(=O)[C@H]([C@@H](C)O)NC(=O)[C@H](CCN)NC(=O)[C@H](CCN)NC(=O)[C@H](Cc2cc(F)c(F)c(F)c2)NC(=O)[C@@H](CC(C)C)NC(=O)[C@H](CCN)NC1=O)[C@@H](C)O` (Octanoyl-[Dab]T[Dab][Dab][Dab][dL][Phe(3,4,5-F3)][Dab][Dab]T; lactam 4-C), the hemolysis at 1 h, 400 ug/ml is under 10%.

For the compound `CCCCCCCC(=O)N[C@@H](CCN)C(=O)N[C@H](C(=O)N[C@@H](CCN)C(=O)N[C@H]1CCNC(=O)[C@H]([C@@H](C)O)NC(=O)[C@H](CCN)NC(=O)[C@H](CCN)NC(=O)[C@H](Cc2ccc(Br)cc2)NC(=O)[C@@H](CC(C)C)NC(=O)[C@H](CCN)NC1=O)[C@@H](C)O` (Octanoyl-[Dab]T[Dab][Dab][Dab][dL][Phe(4-Br)][Dab][Dab]T; lactam 4-C), the hemolysis at 1 h, 400 ug/ml is under 10%.

As to `CCCCCCCC(=O)N[C@@H](CCN)C(=O)N[C@H](C(=O)N[C@@H](CCN)C(=O)N[C@H]1CCNC(=O)[C@H]([C@@H](C)O)NC(=O)[C@H](CCN)NC(=O)[C@H](CCN)NC(=O)[C@H](CCc2ccccc2)NC(=O)[C@@H](CC(C)C)NC(=O)[C@H](CCN)NC1=O)[C@@H](C)O` (Octanoyl-[Dab]T[Dab][Dab][Dab][dL][hPhe][Dab][Dab]T; lactam 4-C), the hemolysis at 1 h, 400 ug/ml is under 10%.

On to `CCCCCCCC(=O)N[C@@H](CCN)C(=O)N[C@H](C(=O)N[C@@H](CCN)C(=O)N[C@H]1CCNC(=O)[C@H]([C@@H](C)O)NC(=O)[C@H](CCN)NC(=O)[C@H](CCN)NC(=O)[C@H](CC(C)C)NC(=O)[C@@H](Cc2ccccc2F)NC(=O)[C@H](CCN)NC1=O)[C@@H](C)O` (Octanoyl-[Dab]T[Dab][Dab][Dab][dPhe(2-F)]L[Dab][Dab]T; lactam 4-C), for which the hemolysis at 1 h, 400 ug/ml is under 10%.

Turning to `CCCCCCCC(=O)N[C@@H](CCN)C(=O)N[C@H](C(=O)N[C@@H](CCN)C(=O)N[C@H]1CCNC(=O)[C@H]([C@@H](C)O)NC(=O)[C@H](CCN)NC(=O)[C@H](CCN)NC(=O)[C@H](CC(C)C)NC(=O)[C@@H](Cc2cc(F)c(F)c(F)c2)NC(=O)[C@H](CCN)NC1=O)[C@@H](C)O` (Octanoyl-[Dab]T[Dab][Dab][Dab][dPhe(3,4,5-F3)]L[Dab][Dab]T; lactam 4-C), the hemolysis at 1 h, 400 ug/ml was under 10%.

On to `CCCCCCCC(=O)N[C@@H](CCN)C(=O)N[C@H](C(=O)N[C@@H](CCN)C(=O)N[C@H]1CCNC(=O)[C@H]([C@@H](C)O)NC(=O)[C@H](CCN)NC(=O)[C@H](CCN)NC(=O)[C@H](Cc2ccccc2)NC(=O)[C@@H](CCc2ccccc2)NC(=O)[C@H](CCN)NC1=O)[C@@H](C)O` (Octanoyl-[Dab]T[Dab][Dab][Dab][d(hPhe)]F[Dab][Dab]T; lactam 4-C), for which the hemolysis at 1 h, 400 ug/ml was under 10%.

For `CCCCCCCC[C@@H]1NC(=O)[C@@H](Cc2ccccc2)NC(=O)[C@H](CCN)NC(=O)[C@@H](NC(=O)[C@H](CCN)NC(=O)[C@@H](NC(=O)[C@H](CCN)NC(=O)CCCCCCC)[C@@H](C)O)CCNC(=O)[C@H]([C@@H](C)O)NC(=O)[C@H](CCN)NC(=O)[C@H](CCN)NC1=O` (Octanoyl-[Dab]T[Dab][Dab][Dab][dF][Gly(octyl)][Dab][Dab]T; lactam 4-C), the hemolysis at 1 h, 400 ug/ml was under 10%.

As for `CCCCCCCC(=O)N[C@@H](CCN)C(=O)N[C@H](C(=O)N[C@@H](CCN)C(=O)N[C@H]1CCNC(=O)[C@H]([C@@H](C)O)NC(=O)[C@H](CCN)NC(=O)[C@H](CCN)NC(=O)[C@H](Cc2ccccc2)NC(=O)[C@@H](CCCc2ccccc2)NC(=O)[C@H](CCN)NC1=O)[C@@H](C)O` (Octanoyl-[Dab]T[Dab][Dab][Dab][d(hhPhe)]F[Dab][Dab]T; lactam 4-C), the hemolysis at 1 h, 400 ug/ml is under 10%.

Turning to `CCCCCCCC(=O)N[C@@H](CCN)C(=O)N[C@H](C(=O)N[C@@H](CCN)C(=O)N[C@H]1CCNC(=O)[C@H]([C@@H](C)O)NC(=O)[C@H](CCN)NC(=O)[C@H](CCN)NC(=O)[C@H](CCCc2ccccc2)NC(=O)[C@@H](Cc2ccccc2)NC(=O)[C@H](CCN)NC1=O)[C@@H](C)O`, the hemolysis at 1 h, 400 ug/ml was under 10%.

For `CCCCCCCC(=O)N[C@@H](CCN)C(=O)N[C@H](C(=O)N[C@@H](CCN)C(=O)N[C@H]1CCNC(=O)[C@H]([C@@H](C)O)NC(=O)[C@H](CCN)NC(=O)[C@H](CCN)NC(=O)[C@H](Cc2ccccc2)NC(=O)[C@@H](CCCCCC)NC(=O)[C@H](CCN)NC1=O)[C@@H](C)O` (Octanoyl-[Dab]T[Dab][Dab][Dab][dAoc(2)]F[Dab][Dab]T; lactam 4-C), the hemolysis at 1 h, 400 ug/ml is under 10%.

These data come from ChEMBL document CHEMBL5537158, “Polymyxins with Potent Antibacterial Activity against Colistin-Resistant Pathogens: Fine-Tuning Hydrophobicity with Unnatural Amino Acids” (J Med Chem, 2024).
